What all share (experiment): growth of human tumour cells (NCI), 48 h
The test system of test [1] is TK-10 renal.
Test [2] relates to OVCAR-8 ovarian.
Test [3] deals with UACC-62 melanoma.
The subject of test [4] is SF-539 CNS.
Test [5] has as its system BT-549 breast.
In test [6] the test system is IGROV1 ovarian.
For test [7], the system named is MDA-MB-435.
Test [8] relates to SK-OV-3 ovarian.
The test system of test [9] is M14 melanoma.
Test [10] deals with HL-60(TB) leukemia.
Test [11] concerns CAKI-1 renal.
For test [12], the system named is HCC-2998 colon.
In test [13] the test system is HCT-116 colon.
Test [14] deals with MDA-MB-231 breast.

The values that follow come from PubChem BioAssay (NCI).

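A five-concentration, 48-hour dose response in 96-well plates underlies each endpoint, interpolated linearly between surrounding concentrations. TGI is the concentration that stops growth completely.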 Some results are limits rather than exact numbers.

For `CC(C)OC(=O)c1ccc(NCC2=CC(=O)C=CC2=O)cc1`, the TGI was determined as 28.6 µM in test [1]; 29.7 µM in [2]; 31.4 µM in test [3]; 22.4 µM in test [4]; 26.1 µM in test [5]; 26.4 µM in [6]. For the same compound, the TGI is 26.4 µM in test [7]; above 100 µM in test [8]; 28.3 µM in test [9]; 5.24 µM in [10]; 11.1 µM in [11]; 38.2 µM in test [12]. The results for the TGI in [13] and in test [14] were 28.6 µM and 25 µM, respectively.

As for `O=c1[nH]c2cccc([N+](=O)[O-])c2c(=O)n1-c1ccc(Cl)cc1`, the TGI in test [1] was determined as 39 µM; in [2], 29.4 µM; in test [3], 23.1 µM; in test [4], 26.2 µM; in test [5], 23.7 µM; in test [6] it was 40.1 µM. Besides, the TGI came to 25.5 µM in test [7]; 28 µM in test [8]; 29.2 µM in test [9]; 53.3 µM in test [10]; 19.5 µM in [11]; 31.4 µM in test [12]. The TGI in test [13] was 61.7 µM; in test [14], 34.3 µM.

Consider `O=C(CSc1ncccn1)N/N=C/c1ccccc1OCc1ccccc1`, for which the TGI in test [1] is 62.4 µM; in test [2], above 100 µM; in test [3] it was 50.4 µM; in test [4], 46 µM; in [5], 70.4 µM; in [6] it was above 100 µM. Moreover, the TGI in test [7] is 31.5 µM; in test [8] it was above 100 µM; in test [9], above 100 µM; in [10], 47.5 µM; in [11], above 100 µM; in [12], 95.1 µM. The TGI in [13] stood at 53.4 µM; in test [14] it was 95.3 µM.

For `CCOc1cccc(C=Nc2ccccc2SSc2ccccc2N=Cc2cccc(OCC)c2O)c1O`, the TGI in [1] stood at 51.4 µM; in test [2], 8.33 µM; in test [3], 22 µM; in test [4] it was 80.2 µM; in [5], 8.19 µM; in test [6], 15.9 µM. The TGI in test [7] came to 23.7 µM; in [8], 52 µM; in test [9], 19.4 µM; in [10], 14.8 µM; in test [11], 29.3 µM; in test [12] it was 44.1 µM. Moreover, the results for the TGI in test [13] and in test [14] were 11.2 µM and 35 µM, respectively.

As to `O=C1CSC(c2ccccc2)N1c1nc2cc3sc(N4C(=O)CSC4c4ccccc4)nc3cc2s1` (stereo not given), the TGI in test [1] was above 100 µM; in test [2] it was above 100 µM; in test [3], above 100 µM; in test [4], 15.6 µM; in test [5] it was above 100 µM; in [6] it was above 100 µM. For the same compound, the TGI in [7], in test [8], in [9], in test [10], in test [11] and in [12] was above 100 µM each time. Further, the TGI in test [13] and in test [14] was above 100 µM each time.

As to `C[N+]12CCCCC1C(COc1cccc3cccnc13)CCC2` (stereo not given), the TGI in test [1], in [2], in [3], in test [4], in [5] and in [6] was above 100 µM in each case. In addition, the TGI in test [7], in [8], in test [9], in test [10], in test [11] and in test [12] was above 100 µM each time. Moreover, the TGI in test [13] and in test [14] was above 100 µM each time.

Regarding `COc1nn(Cc2ccccn2)c2ccc([N+](=O)[O-])cc12`, the TGI in [1], in test [2], in [3], in test [4], in test [5] and in test [6] was above 100 µM throughout. Besides, the TGI is above 100 µM in test [7]; above 100 µM in test [8]; above 100 µM in test [9]; 64.1 µM in test [10]; above 100 µM in test [11]; above 100 µM in test [12]. The TGI in test [13] and in test [14] was above 100 µM throughout.

For `CCN(CCCl)c1cc(CN(C)C)cc(NC(=O)c2ccc(C(=O)Nc3cc(CN(C)C)cc(N(CC)CCCl)c3)cc2)c1`, the TGI in test [1] stood at 2.57 µM; in test [2] it was 1.63 µM; in test [3], 0.273 µM; in test [4] it was 0.815 µM; in [5] it was 0.683 µM; in test [6], 0.732 µM. In addition, the TGI in test [7] came out at 0.48 µM; in [8] it was 5.82 µM; in test [9], 0.926 µM; in test [10] it was 1.09 µM; in test [11], 1.74 µM; in [12] it was 0.311 µM. Further, the TGI came to 1.06 µM in [13] and 1.36 µM in [14].

For the compound `O=C1c2c(Br)sc(Br)c2C(NC(=O)C(F)(F)F)C1O` (stereo not given), the TGI in test [1] is above 100 µM; in [2], 44.1 µM; in test [3], 40.8 µM; in [4], 32.1 µM; in [5] it was 34.9 µM; in test [6] it was 42.3 µM. Besides, the TGI is 54.3 µM in test [7]; 36.4 µM in test [8]; 48.2 µM in test [9]; above 100 µM in test [10]; 31.4 µM in test [11]; 32.6 µM in test [12]. The TGI in test [13] was 32.6 µM; in test [14], 38.5 µM.

As for `CCOC(=O)/C(C#N)=C/Nc1c(C)n(C)n(-c2ccccc2)c1=O`, the TGI in [1], in [2], in test [3], in [4], in test [5] and in [6] was above 100 µM in each case. Moreover, the TGI in [7], in test [8], in test [9], in test [10], in test [11] and in test [12] was above 100 µM throughout. Also, the TGI in [13] and in test [14] was above 100 µM each time.
